According to ChEMBL document CHEMBL4680133, “Novel nitroimidazole derivatives evaluated for their trypanocidal, cytotoxic, and genotoxic activities” (Eur J Med Chem, 2020):

Columns and labels:
[1] = Genotoxicity in mouse RAW264.7 cells assessed as survival at 213 uM measured after 24 hrs by micronucleus test (reference value: 100%); assay type: toxicity, cell-based; conditions: read-out: Survival
[2] = Mutagenicity in Salmonella typhimurium TA97 measured after 20 mins in absence of S9 fraction by microsome assay; assay type: toxicity; conditions: salmonella enterica subsp. enterica serovar typhimurium, microsomes, dose 5-100 µg
[3] = Selectivity index, ratio of GI50 for human HepG2 cells assessed as reduction in cell viability measured after 24 hrs by WST1 assay to IC50 for antitrypanosomal activity against bloodstream form of Trypanosoma cruzi Y trypomastigotes infected in African green monkey Vero cells; assay type: toxicity; conditions: read-out: Selectivity Index
HepG2 [4] = assay: Genotoxicity in human HepG2 assessed as mitotic index at 213 uM measured after 24 hrs by micronucleus test (reference value: 61 to 108); assay type: toxicity, cell-based; conditions: hepg2, 24 h
[5] = Selectivity index, ratio of GI50 for mouse RAW264.7 cells assessed as reduction in cell viability measured after 24 hrs by WST1 assay to IC50 for antitrypanosomal activity against bloodstream form of Trypanosoma cruzi Y trypomastigotes infected in African green monkey Vero cells; assay type: toxicity; conditions: read-out: Selectivity Index
[6] = Mutagenicity in Salmonella typhimurium TA100 measured after 20 mins in absence of S9 fraction by microsome assay; assay type: toxicity; conditions: salmonella enterica subsp. enterica serovar typhimurium, microsomes, dose 5-100 µg
[7] = Genotoxicity in mouse RAW264.7 cells assessed as survival at 4270 uM measured after 24 hrs by micronucleus test (reference value: 100%); assay type: toxicity, cell-based; conditions: read-out: Survival
[8] = Mutagenicity in Salmonella typhimurium YG1021 at 5 to 100 ug/plate after 20 mins by microsome assay; assay type: toxicity; conditions: salmonella enterica subsp. enterica serovar typhimurium, microsomes
[9] = Mutagenicity in Salmonella typhimurium YG1024 at 5 to 100 ug/plate after 20 mins by microsome assay; assay type: toxicity; conditions: salmonella enterica subsp. enterica serovar typhimurium, microsomes, dose 5-100 µg
[10] = Selectivity index, ratio of GI50 for mouse RAW264.7 cells assessed as reduction in cell viability measured after 24 hrs by WST1 assay to IC50 for antitrypanosomal activity against Trypanosoma cruzi Y axenic amastigotes infected in African green monkey Vero cells; assay type: toxicity; conditions: read-out: Selectivity Index
Trypanosoma cruzi [11] = assay: Antitrypanosomal activity against Trypanosoma cruzi Y axenic amastigotes infected in African green monkey Vero cells after 24 hrs by MTT assay; assay type: functional, organism-based
[12] = Toxicity in Salmonella typhimurium YG1021 at 5 to 100 ug/plate after 20 mins by colony counting method; conditions: salmonella enterica subsp. enterica serovar typhimurium, dose 5-100 µg
[13] = Mutagenicity in Salmonella typhimurium TA97 measured after 20 mins in presence of S9 fraction by microsome assay; assay type: toxicity, subcellular; conditions: salmonella enterica subsp. enterica serovar typhimurium, s9, 20 min, dose 5-100 µg
[14] = Mutagenicity in Salmonella typhimurium TA102 measured after 20 mins in absence of S9 fraction by microsome assay; assay type: toxicity; conditions: salmonella enterica subsp. enterica serovar typhimurium, microsomes, dose 5-100 µg
[15] = Mutagenicity in Salmonella typhimurium TA100 measured after 20 mins in presence of S9 fraction by microsome assay; assay type: toxicity, subcellular; conditions: salmonella enterica subsp. enterica serovar typhimurium, s9, 20 min, dose 5-100 µg
[16] = Genotoxicity in human HepG2 assessed as survival at 427 uM measured after 24 hrs by micronucleus test (reference value: 100%); assay type: toxicity, cell-based; conditions: HepG2 cells, read-out: Survival
[17] = Mutagenicity in Salmonella typhimurium TA100 assessed as revertant/ug measured after 20 mins in presence of S9 fraction by microsome assay; assay type: toxicity, subcellular; conditions: salmonella enterica subsp. enterica serovar typhimurium, s9, 20 min
[18] = Cytotoxicity against mouse RAW264.7 cells assessed as reduction in cell viability measured after 24 hrs by WST1 assay; assay type: cell-based
[19] = Genotoxicity in mouse RAW264.7 cells assessed as survival at 2135 uM measured after 24 hrs by micronucleus test (reference value: 100%); assay type: toxicity, cell-based; conditions: read-out: Survival
[20] = Mutagenicity in Salmonella typhimurium TA100 assessed as revertant/ug measured after 20 mins in absence of S9 fraction by microsome assay; assay type: toxicity; conditions: salmonella enterica subsp. enterica serovar typhimurium, microsomes
HepG2 [21] = assay: Genotoxicity in human HepG2 assessed as mitotic index at 4270 uM measured after 24 hrs by micronucleus test (reference value: 61 to 108); assay type: toxicity, cell-based; conditions: hepg2, 24 h
RAW264.7 [22] = assay: Genotoxicity in mouse RAW264.7 cells assessed as number of micronucleated cells at 2135 uM measured after 24 hrs by micronucleus test (reference value: 12 to 15); assay type: toxicity, cell-based; conditions: raw264.7, 24 h
[23] = Mutagenicity in Salmonella typhimurium TA102 measured after 20 mins in presence of S9 fraction by microsome assay; assay type: toxicity, subcellular; conditions: salmonella enterica subsp. enterica serovar typhimurium, s9, 20 min, dose 5-100 µg
RAW264.7 [24] = assay: Genotoxicity in mouse RAW264.7 cells assessed as number of micronucleated cells at 427 uM measured after 24 hrs by micronucleus test (reference value: 12 to 15); assay type: toxicity, cell-based; conditions: raw264.7, 24 h
[25] = Mutagenicity in Salmonella typhimurium TA98 measured after 20 mins in absence of S9 fraction by microsome assay; assay type: toxicity; conditions: salmonella enterica subsp. enterica serovar typhimurium, microsomes, dose 5-100 µg
HepG2 [26] = assay: Genotoxicity in human HepG2 assessed as number of micronucleated cells at 427 uM measured after 24 hrs by micronucleus test (reference value: 14 to 18); assay type: toxicity, cell-based; conditions: hepg2, 24 h
[27] = Cytotoxicity against human HepG2 cells assessed as reduction in cell viability measured after 24 hrs by WST1 assay; assay type: cell-based
[28] = Mutagenicity in Salmonella typhimurium TA97 assessed as revertant/ug measured after 20 mins in absence of S9 fraction by microsome assay; assay type: toxicity; conditions: salmonella enterica subsp. enterica serovar typhimurium, microsomes
[29] = Mutagenicity in Salmonella typhimurium TA98 measured after 20 mins in presence of S9 fraction by microsome assay; assay type: toxicity, subcellular; conditions: salmonella enterica subsp. enterica serovar typhimurium, s9, 20 min, dose 5-100 µg
[30] = Selectivity index, ratio of GI50 for human HepG2 cells assessed as reduction in cell viability measured after 24 hrs by WST1 assay to IC50 for antitrypanosomal activity against Trypanosoma cruzi Y axenic amastigotes infected in African green monkey Vero cells; assay type: toxicity; conditions: read-out: Selectivity Index
[31] = Mutagenicity in Salmonella typhimurium TA97 assessed as revertant/ug measured after 20 mins in presence of S9 fraction by microsome assay; assay type: toxicity, subcellular; conditions: salmonella enterica subsp. enterica serovar typhimurium, s9, 20 min
[32] = Toxicity in Salmonella typhimurium TA97 at 100 ug/plate measured after 20 mins in absence of S9 fraction by colony counting method; conditions: salmonella enterica subsp. enterica serovar typhimurium, dose 100 µg
Trypanosoma cruzi [33] = assay: Antitrypanosomal activity against bloodstream form of Trypanosoma cruzi Y trypomastigotes infected in African green monkey Vero cells assessed as increase in parasite lysis measured after 24 hrs by Neubauer chamber method; assay type: functional, organism-based
RAW264.7 [34] = assay: Cytotoxicity against mouse RAW264.7 cells at 21.3 to 427 uM measured after 24 hrs by LDH assay; assay type: cell-based; conditions: raw264.7, 24 h, dose 21.3-427 µM
[35] = Genotoxicity in mouse RAW264.7 cells assessed as survival at 3500 uM measured after 24 hrs by micronucleus test (reference value: 100%); assay type: toxicity, cell-based; conditions: read-out: Survival
RAW264.7 [36] = assay: Genotoxicity in mouse RAW264.7 cells assessed as mitotic index at 1750 uM measured after 24 hrs by micronucleus test (reference value: 40 to 249); assay type: toxicity, cell-based; conditions: raw264.7, 24 h
[37] = Toxicity in Salmonella typhimurium TA102 at 100 ug/plate measured after 20 mins in absence of S9 fraction by colony counting method; conditions: salmonella enterica subsp. enterica serovar typhimurium, dose 100 µg
[38] = Genotoxicity in mouse RAW264.7 cells assessed as survival at 1750 uM measured after 24 hrs by micronucleus test (reference value: 100%); assay type: toxicity, cell-based; conditions: read-out: Survival
HepG2 [39] = assay: Cytotoxicity against human HepG2 cells assessed as induction of membrane damage at 17.5 to 350 uM measured after 24 hrs by LDH assay; assay type: cell-based; conditions: hepg2, 24 h, dose 17.5-350 µM

Compound | Activity [2] | selectivity ratio at 24 h [3] | selectivity ratio at 24 h [5] | Activity [6] | Activity [8] | Activity [9] | selectivity ratio at 24 h [10] | IC50 (Trypanosoma cruzi [11]) | Activity [12] | Activity [13] | Activity [14] | Activity [15] | Activity [17] | GI50 at 24 h [18] | Activity [20] | Activity [23] | Activity [25] | GI50 at 24 h [27] | Activity [28] | Activity [29] | other results
Cn1cnc([N+](=O)[O-])c1-n1cc(C2CC2)nn1 | Toxic | > 79 | > 79 | Toxic | Non-Toxic | Non-Toxic | > 35.5 | 12 µM | Non-Toxic | Toxic | Toxic | Toxic | 0.278 revertants/µg | > 427 µM | 2.42 revertants/µg | Toxic | Non-Toxic | > 427 µM | 6.31 revertants/µg | Non-Toxic | viability at 24 h, 213 µM [1]: 99%; Activity_index (HepG2 [4]): 97; viability at 24 h, 4270 µM [7]: 94%; viability at 24 h, 427 µM [16]: 99%; viability at 24 h, 2135 µM [19]: 96%; Activity_index (HepG2 [21]): 124; Activity (RAW264.7 [22]): 19; Activity (RAW264.7 [24]): 11; Activity (HepG2 [26]): 17; selectivity ratio at 24 h [30]: > 35.5; Activity [31]: 3.833 µg; Activity [32]: Toxic; IC50 (Trypanosoma cruzi [33]): 5.4 µM; Activity (RAW264.7 [34]): Non-Toxic
CCCCCc1ccc(-c2cn(-c3c([N+](=O)[O-])ncn3C)nn2)cc1 | Toxic | 27 | 2.77 | Toxic | Toxic | Toxic | > 0.25 | 142 µM | Toxic | Toxic | Toxic | Toxic | 2.46 revertants/µg | 35.8 µM | 2.96 revertants/µg | Toxic | Non-Toxic | > 350 µM | 1.34 revertants/µg | Non-Toxic | viability at 24 h, 3500 µM [35]: 71%; Activity_index (RAW264.7 [36]): 166; Activity [37]: Toxic; viability at 24 h, 1750 µM [38]: 85%; Activity (HepG2 [39]): Toxic; selectivity ratio at 24 h [30]: > 2.46; Activity [31]: 8.494 µg; IC50 (Trypanosoma cruzi [33]): 12.9 µM
